Experimental data reported in patent US10196391B2 (Hoffmann-La Roche Inc., priority 2014, dated 2019).

tested on: HBsAg; experiment: HBsAg assay (CLIA) in HepG2.2.15 cells; format: cell-based, HBV; settings: Hepatitis B virus, HepG2.2.15, read-out: IC50 (HBsAg assay)
Method: HepG2.2.15 cells (Acs et al. Proc Natl Acad Sci USA, 84, (1987), 4641-4), a constitutively HBV-expressing cell line were cultured in DMEM+Glutamax-I medium (Invitrogen, Carlsbad, Calif., USA), supplemented with 10% fetal bovine serum (Invitrogen) and G418 (Invitrogen) at a final concentration of 200 mg/L and maintained in 5% CO2 at 37° C.
HepG2.2.15 cells were seeded in duplicate into white, 96-well plates at 1.5×10^4 cells/well. The cells were treated with a three-fold serial dilution series of the compounds in DMSO. The final DMSO concentration in all wells was 1% and DMSO was used as no drug control.
The HBsAg chemiluminescence immunoassay (CLIA) kit (Autobio Diagnostics Co., Zhengzhou, China, Catalog number: CL0310-2) was used to measure the levels of secreted HBV antigens semi-quantitatively. For the detection 50 μL/well culture supernatant was used and HBsAg was quantified using HBsAg chemiluminescence immunoassay (CLIA) kit (Autobio Diagnostics Co., Zhengzhou, China, Catalog number: CL0310-2), 50 μL of the supernatant was transferred to the CLIA assay plate and 50 μL of enzyme conjugate reagent was added into each well. The plates were sealed and gently agitated for 1 hour at room temperature. The supernatant-enzyme-mixture was discarded and wells were washed 6 times with 300 μL of PBS. The residual liquid was removed by plating the CLIA plate […] on absorbent tissue paper. 25 μL of substrates A and B were added to each well. Luminance was measured using a luminometer (Mithras LB 940 Multimode Microplate Reader) after 10 minutes incubation. Dose-response curves were generated and the IC50 value was extrapolated by using the E-WorkBook Suite (ID Business Solutions Ltd., Guildford, UK). The IC50 was defined as the compound concentration (or conditioned media log dilution) at which HBsAg secretion was reduced by 50% compared to the no drug control.
The compounds according to formula I were tested for their capacity to inhibit HBsAg as described herein.

Row | SMILES | IC50 [nM]
1 | Fc1cc(F)nc(N2CCc3nc(-c4ncccn4)ncc3C2)c1 [Example 110, 6-(4,6-difluoro-2-pyridyl)-2-pyrimidin-2-yl-7,8-dihydro-5H-pyrido[4,3-d]pyrimidine] | 1440
2 | CCOC(=O)c1ccc(N2CCc3nc(-c4ccccn4)ncc3C2)cc1 [Example 31, ethyl 4-[2-(2-pyridyl)-7,8-dihydro-5H-pyrido[4,3-d]pyrimidin-6-yl]benzoate] | 16900
3 | COc1cc(N2CCc3nc(-c4ccccn4)ncc3C2)cc(F)c1F [Example 17, 6-(3,4-difluoro-5-methoxy-phenyl)-2-(2-pyridyl)-7,8-dihydro-5H-pyrido[4,3-d]pyrimidine] | 154
4 | Clc1ccc(N2CCc3nc(-c4ccccn4)ncc3C2)cc1 [Example 45, 6-(4-chlorophenyl)-2-(2-pyridyl)-7,8-dihydro-5H-pyrido[4,3-d]pyrimidine] | 3230
5 | Fc1ccc(N2CCc3nc(-c4ccccn4)ncc3C2)c(F)c1 [Example 14, 6-(2,4-difluorophenyl)-2-(2-pyridyl)-7,8-dihydro-5H-pyrido[4,3-d]pyrimidine] | 9510
6 | COc1cc(N2CCc3nc(-c4ccccn4)ncc3C2)ccc1C#N [Example 60, 2-methoxy-4-[2-(2-pyridyl)-7,8-dihydro-5H-pyrido[4,3-d]pyrimidin-6-yl]benzonitrile] | 371
7 | COCCOc1ccc(N2CCc3nc(-c4ccccn4)ncc3C2)cc1OC [Example 57, 6-[3-methoxy-4-(2-methoxyethoxy)phenyl]-2-(2-pyridyl)-7,8-dihydro-5H-pyrido[4,3-d]pyrimidine] | 2170
8 | Fc1cc(N2CCc3nc(-c4ccccn4)ncc3C2)ccc1OCc1ccccc1 [Example 53, 6-(4-benzyloxy-3-fluoro-phenyl)-2-(2-pyridyl)-7,8-dihydro-5H-pyrido[4,3-d]pyrimidine] | 1560
9 | COc1cccc(N2CCc3nc(-c4ccccn4)ncc3C2)c1 [Example 92, 6-(3-methoxyphenyl)-2-(2-pyridyl)-7,8-dihydro-5H-pyrido[4,3-d]pyrimidine] | 2890
10 | c1ccc(-c2ncc3c(n2)CCN(c2ncccn2)C3)nc1 [Example 37, 2-(2-pyridyl)-6-pyrimidin-2-yl-7,8-dihydro-5H-pyrido[4,3-d]pyrimidine] | 4450
11 | c1ccc(-c2ncc3c(n2)CCN(c2cccnc2)C3)nc1 [Example 39, 2-(2-pyridyl)-6-(3-pyridyl)-7,8-dihydro-5H-pyrido[4,3-d]pyrimidine] | 9120
12 | COc1cc(Cl)cc(N2CCc3nc(-c4ncccn4)ncc3C2)n1 [Example 115, 6-(4-chloro-6-methoxy-2-pyridyl)-2-pyrimidin-2-yl-7,8-dihydro-5H-pyrido[4,3-d]pyrimidine] | 352
13 | COCCCNC(=O)c1cc(F)cc(N2CCc3nc(-c4ncccn4)ncc3C2)c1 [Example 106, 3-fluoro-N-(3-methoxypropyl)-5-(2-pyrimidin-2-yl-7,8-dihydro-5H-pyrido[4,3-d]pyrimidin-6-yl)benzamide] | 1340
14 | O=C(O)c1ccc(N2CCc3nc(-c4ccccn4)ncc3C2)cc1 [Example 32, 4-[2-(2-pyridyl)-7,8-dihydro-5H-pyrido[4,3-d]pyrimidin-6-yl]benzoic acid] | 9750
15 | Cc1cc(F)cc(N2CCc3nc(-c4ccccn4)ncc3C2)c1 [Example 40, 6-(3-fluoro-5-methyl-phenyl)-2-(2-pyridyl)-7,8-dihydro-5H-pyrido[4,3-d]pyrimidine] | 669
16 | CN(C)S(=O)(=O)c1ccc(N2CCc3nc(-c4ccccn4)ncc3C2)cc1 [Example 9, N,N-dimethyl-4-[2-(2-pyridyl)-7,8-dihydro-5H-pyrido[4,3-d]pyrimidin-6-yl]benzenesulfonamide] | 16900

Row | SMILES | IC50 [nM]
17 | COc1cc(N2CCc3nc(-c4ccccn4)ncc3C2)ncc1F [Example 71, 6-(5-fluoro-4-methoxy-2-pyridyl)-2-(2-pyridyl)-7,8-dihydro-5H-pyrido[4,3-d]pyrimidine] | 330
18 | COc1cc(OC)cc(N2CCc3nc(-c4ncccn4)ncc3C2)c1 [Example 73, 6-(3,5-dimethoxyphenyl)-2-pyrimidin-2-yl-7,8-dihydro-5H-pyrido[4,3-d]pyrimidine] | 1960
19 | CNS(=O)(=O)c1ccc(N2CCc3nc(-c4ccccn4)ncc3C2)cc1 [Example 8, N-methyl-4-[2-(2-pyridyl)-7,8-dihydro-5H-pyrido[4,3-d]pyrimidin-6-yl]benzenesulfonamide] | 4180
20 | Cc1ccc(N2CCc3nc(-c4ccccn4)ncc3C2)cc1 [Example 47, 6-(p-tolyl)-2-(2-pyridyl)-7,8-dihydro-5H-pyrido[4,3-d]pyrimidine] | 11400
21 | O=[N+]([O-])c1ccccc1N1CCc2nc(-c3ccccn3)ncc2C1 [Example 33, 6-(2-nitrophenyl)-2-(2-pyridyl)-7,8-dihydro-5H-pyrido[4,3-d]pyrimidine] | 390
22 | CNC(=O)c1cc(F)cc(N2CCc3nc(-c4ncccn4)ncc3C2)c1 [Example 103, 3-fluoro-N-methyl-5-(2-pyrimidin-2-yl-7,8-dihydro-5H-pyrido[4,3-d]pyrimidin-6-yl)benzamide] | 2770
23 | CC1CN(c2ccc([N+](=O)[O-])cc2)Cc2cnc(-c3ccccn3)nc21 (stereo not shown) [Example 48, 8-methyl-6-(4-nitrophenyl)-2-(2-pyridyl)-7,8-dihydro-5H-pyrido[4,3-d]pyrimidine] | 1380
24 | COc1cc(N2CCc3nc(-c4cnccn4)ncc3C2)cc(F)c1F [Example 28, 6-(3,4-difluoro-5-methoxy-phenyl)-2-pyrazin-2-yl-7,8-dihydro-5H-pyrido[4,3-d]pyrimidine] | 455
25 | COc1cc(F)cc(N2CCc3nc(-c4ncccn4)ncc3C2)c1 [Example 117, 6-(3-fluoro-5-methoxy-phenyl)-2-pyrimidin-2-yl-7,8-dihydro-5H-pyrido[4,3-d]pyrimidine] | 157
26 | NC(=O)c1cc(F)cc(N2CCc3nc(-c4ncccn4)ncc3C2)c1 [Example 105, 3-fluoro-5-(2-pyrimidin-2-yl-7,8-dihydro-5H-pyrido[4,3-d]pyrimidin-6-yl)benzamide] | 18100
27 | Clc1cc(Cl)nc(N2CCc3nc(-c4ncccn4)ncc3C2)c1 [Example 113, 6-(4,6-dichloro-2-pyridyl)-2-pyrimidin-2-yl-7,8-dihydro-5H-pyrido[4,3-d]pyrimidine] | 161
28 | COCCCOc1ccc(N2CCc3nc(-c4ccccn4)ncc3C2)cc1F [Example 56, 6-[3-fluoro-4-(3-methoxypropoxy)phenyl]-2-(2-pyridyl)-7,8-dihydro-5H-pyrido[4,3-d]pyrimidine] | 1840
29 | COc1nc(N2CCc3nc(-c4ncccn4)ncc3C2)ccc1F [Example 72, 6-(5-fluoro-6-methoxy-2-pyridyl)-2-pyrimidin-2-yl-7,8-dihydro-5H-pyrido[4,3-d]pyrimidine] | 1430
30 | Fc1cc(N2CCc3nc(-c4ccccn4)ncc3C2)cc(F)c1OCc1ccccc1 [Example 64, 6-(4-benzyloxy-3,5-difluoro-phenyl)-2-(2-pyridyl)-7,8-dihydro-5H-pyrido[4,3-d]pyrimidine] | 1820
31 | COc1cc(N2CCc3nc(-c4ncccn4)ncc3C2)cc(Cl)n1 [Example 116, 6-(2-chloro-6-methoxy-4-pyridyl)-2-pyrimidin-2-yl-7,8-dihydro-5H-pyrido[4,3-d]pyrimidine] | 530
